According to patent US8685658B2, “Compositions and methods for the treatment of diseases associated with aberrant cilia assembly and regulation” (Fox Chase Cancer Center, priority 2006, dated 2014):
Changes are numbered by the printed parent chain. Names may count otherwise.

How the values were obtained:
hTERT-RPE1 cells [1] = assay: FACS cell cycle profile after serum stimulation; format: cell-based
hTERT-RPE1 cells [2] = assay: serum-induced ciliary disassembly in ciliated hTERT-RPE1 cells; format: cell-based; conditions: compounds added 2 hours prior to induction; tubacin and niltubacin 2 μM, GSK3 inhibitor 2 μM, FTI-277 50 nM
Description: hTERT-RPE1 cells were grown in DMEM with 10% fetal bovine serum (FBS). For analysis of ciliary disassembly, cells were plated at 30% confluence in plates containing glass cover slips, and starved for 48 hours (in Opti-MEM or regular DMEM, without added serum) to induce cilia formation, followed by treatments described hereinbelow. For siRNA treatment, cells were initially plated in DMEM/10% FBS in plates containing cover slips, and 12 hours later siRNA transfection was performed in Opti-MEM with Oligofectamine (Invitrogen) according to manufacturer recommendations, and fixed 48 hours after transfection, following treatments indicated in Results. The remaining cells on plate were lysed, then either directly analyzed by Western blot analysis, or used for immunoprecipitation (IP)-kinase reaction to measure AurA activity.
Cells were fixed with 4% paraformaldehyde (10 min) then methanol (5 min), permeabilized with 1% Triton-X100 in PBS, blocked in 1×PBS, 3% BSA, and incubated with antibodies using standard protocols. Primary antibodies included rabbit polyclonal anti-Aurora A and anti-phospho-AuroraA/T288, (Cell Signaling), mouse mAb anti-HEF1 (14A11), polyclonal anti-γ-tubulin (Sigma), anti-α-tubulin mAb (Sigma), anti-acetylated α-tubulin mAb (clone 6-11B-1, Sigma, and clone K(Ac)40 Biomol), anti-IFT88 and anti-IFT20 (gifts of G. Pazour), mouse anti-glutamylated tubulin (Sigma), and anti-HDAC6 (Upstate). Secondary antibodies labeled with Alexa-488, Alexa-568, and Alexa-633, and TOTO-3 dye to stain DNA, were from Molecular Probes/Invitrogen. DNA was co-stained in some experiments by propidium iodine (Sigma) or Draq5 (Alexis), Confocal microscopy was performed using a Radiance 2000 laser scanning confocal microscope ((Carl Zeiss, Thornwood, N.Y.) coupled to a Nikon Eclipse E800 upright microscope (Nikon). Statistical analysis of data by one-way ANOVA was performed using GraphPad Instat 3.0 (San Diego, Calif.).

acetylated tubulin = assay: intracellular levels of acetylated tubulin (Western blot); format: cell-based; conditions: vs DMSO vehicle
Description: (§1) For microinjection, recombinant glutathione-S-transferase (GST), GST fused AurA mutants T288A and D274N) produced from BL21 (DE3) bacteria were purified using the MicroSpin GST Purification Module (Amersham Biotech.). Purified recombinant AurA was purchased from Upstate; this AurA was pre-activated based on incubation with ATP. […] To prepare lysates for Western blotting and IP, mammalian cells were disrupted by M-PER lysis buffer (Pierce) supplemented with EDTA-free protease inhibitor cocktail (Roche). Lysates used for IP were incubated overnight with antibody at 4° C., subsequently incubated for 2 hours with protein A/G-sepharose (Pierce), washed, and resolved by SDS-PAGE. Western blotting was performed using standard procedures and proteins visualized using the West-Pico system (Pierce). Antibodies used included mouse monoclonal antibody (mAb) anti-HEF1 2G9 (Pugacheva and Golemis, 2005), anti-α-tubulin mAb (Sigma), anti-AurA (BD Bioscience) for Western blotting, anti-AurA rabbit polyclonal (Cell Signaling) for IP, anti-Phospho-AurA/T288 (BioLegend), anti-Phospho-AurA/T288 (Cell Signaling), anti-HDAC6 rabbit polyclonal (Upstate; 1:5000), anti-HDAC2 rabbit polyclonal (Invitrogen) and mAb anti-β-actin (AC15, Sigma), anti-IFT88 and anti-IFT20. Secondary horseradish peroxidase (HRP)-conjugated antibodies were from Amersham Biotech.

hTERT-RPE1 cells [3] = assay: loss of cilia after microinjection of AurA proteins into ciliated hTERT-RPE1 cells; format: cell-based
Description: as §1
Microinjections were performed on a Nikon TE300 Microscope (Nikon, Melville, N.Y.) that was equipped with an Eppendorf Transjector 5246 semi-automatic microinjector and micromanipulator (Eppendorf, Westbury, N.Y.). […] Proteins were pre-filtered through a 0.2-μm Milliopore membrane and mixed with Dextran Green488 (Molecular Probes) to mark injected cells. Injected cells were incubated at 37° C. before fixation. Typically, 150 cells were microinjected in each of 3 experiments.

hTERT-RPE1 cells [4] = assay: growth factor-induced disassembly of cilia in hTERT-RPE1 cells; format: cell-based; conditions: 10 ng/ml
Description: FIG. 4. Growth factor-induced disassembly of cilia in hTERT-RPE1 cells. A. Time course of disassembly of cilia in cells treated with EGF, PDGF, and TGF-β. […] B. Western blot indicating T288-phosphorylated and total AurA in cells treated with PDGF or EGF, at times indicated after treatment. C. Immunofluorescence depicting cilia (red, acetylated a α-tubulin) and phospho-AurA (green) staining at the basal body at 2 hours after stimulation with PDGF, EGF, or serum. Phosphorylated AurA is apparent in PDGF- and serum-treated cells, but not EGF-treated cells: further, many well-formed cilia are apparent in EGF-treated cells (marked with asterisks) in contrast to other conditions. Scale bar represents […].
hTERT-RPE1 cells were grown in DMEM with 10% fetal bovine serum (FBS). For analysis of ciliary disassembly, cells were plated at 30% confluence in plates containing glass cover slips, and starved for 48 hours (in Opti-MEM or regular DMEM, without added serum) to induce cilia formation, followed by treatments described hereinbelow. […] The remaining cells on plate were lysed, then either directly analyzed by Western blot analysis, or used for immunoprecipitation (IP)-kinase reaction to measure AurA activity.

[5] = target: recombinant glutathione-S-transferase (GST)
[6] = target: T1, in vitro translated and immunoprecipitated HDAC6, Q9UBN7
T1 chain: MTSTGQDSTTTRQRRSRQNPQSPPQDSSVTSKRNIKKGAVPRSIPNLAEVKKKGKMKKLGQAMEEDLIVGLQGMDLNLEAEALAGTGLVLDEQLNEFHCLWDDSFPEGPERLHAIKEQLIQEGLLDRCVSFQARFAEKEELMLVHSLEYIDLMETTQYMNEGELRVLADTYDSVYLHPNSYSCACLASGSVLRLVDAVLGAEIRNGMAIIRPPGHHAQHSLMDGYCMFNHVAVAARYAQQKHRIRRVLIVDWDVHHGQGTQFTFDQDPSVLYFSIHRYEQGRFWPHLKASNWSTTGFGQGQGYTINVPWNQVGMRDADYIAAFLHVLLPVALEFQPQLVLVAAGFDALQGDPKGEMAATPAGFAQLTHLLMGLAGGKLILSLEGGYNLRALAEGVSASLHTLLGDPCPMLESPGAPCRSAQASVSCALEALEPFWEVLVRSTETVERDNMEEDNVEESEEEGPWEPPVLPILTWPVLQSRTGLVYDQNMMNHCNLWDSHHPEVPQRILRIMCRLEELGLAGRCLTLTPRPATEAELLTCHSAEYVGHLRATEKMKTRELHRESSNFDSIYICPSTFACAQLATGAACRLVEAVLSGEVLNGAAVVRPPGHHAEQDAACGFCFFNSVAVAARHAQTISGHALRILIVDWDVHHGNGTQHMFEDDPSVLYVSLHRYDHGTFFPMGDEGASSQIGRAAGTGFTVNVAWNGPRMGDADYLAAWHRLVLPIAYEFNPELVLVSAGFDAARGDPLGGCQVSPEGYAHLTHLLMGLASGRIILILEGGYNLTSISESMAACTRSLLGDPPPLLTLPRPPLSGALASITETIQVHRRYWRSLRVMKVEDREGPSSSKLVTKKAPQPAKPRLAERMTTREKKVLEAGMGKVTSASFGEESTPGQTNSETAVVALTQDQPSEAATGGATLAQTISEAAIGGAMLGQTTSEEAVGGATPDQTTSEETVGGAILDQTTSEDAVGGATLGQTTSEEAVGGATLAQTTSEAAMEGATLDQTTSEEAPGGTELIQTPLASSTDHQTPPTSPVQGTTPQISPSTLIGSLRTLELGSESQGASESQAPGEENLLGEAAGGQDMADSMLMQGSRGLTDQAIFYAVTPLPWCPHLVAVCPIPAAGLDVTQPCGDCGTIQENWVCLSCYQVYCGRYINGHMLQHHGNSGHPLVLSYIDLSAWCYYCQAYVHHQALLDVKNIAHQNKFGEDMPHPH

[7] = 0.05 μM protein microinjected, low serum medium

O=C(CCCCCCC(=O)Nc1ccc([C@H]2O[C@@H](CSc3nc(-c4ccccc4)c(-c4ccccc4)o3)C[C@@H](c3ccc(CO)cc3)O2)cc1)NO [tubacin]
cell cycle profile at 2 h after serum stimulation (hTERT-RPE1 cells [1]; 2 h): neither tubacin treatment nor siRNA to HDAC6 influenced cell cycle profile | cell cycle profile at the later time point after serum stimulation (hTERT-RPE1 cells [1]; later time point (18-24 h)): accumulation in G2 | serum-induced ciliary disassembly (hTERT-RPE1 cells [2]): completely blocked | levels of acetylated tubulin in treated cells (acetylated tubulin): increased | ability of microinjected AurA to disassemble cilia (hTERT-RPE1 cells [3]; cells pre-treated for 3 hours with tubacin before aAurA microinjection): substantially limited

PDGF
ciliary disassembly response to growth factor (hTERT-RPE1 cells [4]): partial response

COC(=O)[C@H](CCSC)NC(=O)c1ccc(NC[C@@H](N)CS)cc1-c1ccccc1 [FTI]
serum-induced ciliary disassembly (hTERT-RPE1 cells [2]): do not inhibit

O=C(O)CCCCCCC(=O)Nc1ccc([C@H]2O[C@@H](CSc3nc(-c4ccccc4)c(-c4ccccc4)o3)C[C@@H](c3ccc(CO)cc3)O2)cc1 [niltubacin]
serum-induced ciliary disassembly (hTERT-RPE1 cells [2]): no effect | levels of acetylated tubulin in treated cells (acetylated tubulin): not

CC(/C=C/C(=O)NO)=C\[C@@H](C)C(=O)c1ccc(N(C)C)cc1 [trichostatin A (TSA), trichostatin A]
serum-induced ciliary disassembly (hTERT-RPE1 cells [2]): completely blocked | levels of acetylated tubulin in treated cells (acetylated tubulin): increased

B1: recombinant activated AurA (Upstate) (protein)
chain: MDRSKENCISGPVKATAPVGGPKRVLVTQQFPCQNPLPVNSGQAQRVLCPSNSSQRIPLQAQKLVSSHKPVQNQKQKQLQATSVPHPVSRPLNNTQKSKQPLPSAPENNPEEELASKQKNEESKKRQWALEDFEIGRPLGKGKFGNVYLAREKQSKFILALKVLFKAQLEKAGVEHQLRREVEIQSHLRHPNILRLYGYFHDATRVYLILEYAPLGTVYRELQKLSKFDEQRTATYITELANALSYCHSKRVIHRDIKPENLLLGSAGELKIADFGWSVHAPSSRRTTLCGTLDYLPPEMIEGRMHDEKVDLWSLGVLCYEFLVGKPPFEANTYQETYKRISRVEFTFPDFVTEGARDLISRLLKHNPSQRPMLREVLEHPWITANSSKPSNCQNKESASKQS
in vitro kinase assay (32P autoradiography) [5]: AurA phosphorylated HDAC6, but not HDAC2 or the GST negative control | in vitro tubulin deacetylation assay [6]: AurA-phosphorylated HDAC6 was much more potent than unphosphorylated HDAC6 in deacetylating α-tubulin | injected cells lacking cilia (hTERT-RPE1 cells [3]; 0.05 μM protein microinjected, low serum medium, as soon as cells could be fixed): more than 80%

B2: T288A: T288A AurA, a hypomorphic mutant (protein, UniProt O14965 1-403, looked up, variant T288A)
Aurora kinase A: B1 chain with T288A
loss of cilia after microinjection (hTERT-RPE1 cells [3]; [7]): eventual partial loss of cilia

B3: D274N: D274N AurA, an inactive mutant (protein, UniProt O14965 1-403, looked up, variant D274N)
Aurora kinase A: B1 chain with D274N
loss of cilia after microinjection (hTERT-RPE1 cells [3]; [7]): did not induce loss of cilia
